Experimental data published in PMC9592910, “Tissue distribution and integrated pharmacokinetic properties of major effective constituents of oral Gegen-Qinlian decoction in mice” (Frontiers in Pharmacology, 2022).
Marks after values point to notes of the source that are not given here. Blank lines part the entries; values can stand above or below the compound they belong to.

How the values were obtained:
Format in all cases: in vivo, Kunming mice
[1] = Pharmacokinetics of GQD constituents in the systemic circulation of mice after oral GQD; conditions: both, Kunming, mouse; for AUC(0-t): read-out: AUC0–24 h
Method: (§1) Fifty-four Kunming mice were randomly divided into nine groups according to body weight and gender (3 male and three female in each group). Each group was orally administered with water solution (0.2 ml/10 g body weight) of the GQD extract powder at the dosage of 6.1 g/kg body weight. The dosage of GQD extract powder equals to 18 g/kg herbal pieces of GQD, which is equivalent to its clinical dosage. At each designed time point (0.08, 0.25, 0.5, 1, 2, 4, 8, 12, and 24 h) after oral administration, six mice were anesthetized with ether, and blood was collected from the portal vein (about 0.2 ml, aspirated in a 1 ml heparinized syringe) and then the systemic circulation (about 0.2 ml, collected in heparinized tubes after removal of the eyeball) of the mice to prepare plasma samples, and the livers and the colons were removed to prepare respective homogenate. After pretreatment, the concentrations of 19 major constituents of GQD in each sample were measured by the validated LC-MS/MS method (see “2.3”). Then the C-T curves of the constituents in the plasma and the tissue homogenates were respectively drawn and their pharmacokinetic parameters were respectively calculated.
(§2) It should be noted that the pharmacokinetic parameters of a GQD constituent was calculated based on its average concentration in six mice at each time point. The results were expressed as mean ± SD.

[2] = Pharmacokinetics/tissue distribution of GQD constituents in the colons of mice after oral GQD; conditions: for half-life / Cmax / MRT / Tmax: both, Kunming
Method: (§3) The liver and the colon homogenates were prepared with 10 times (V: W) the volume of ascorbic acid solution (200 μg/ml). Then the homogenates were pretreated as plasma to obtain the tissue samples for LC-MS/MS analysis. Fifty-four Kunming mice were randomly divided into nine groups according to body weight and gender (3 male and three female in each group). […] Then the C-T curves of the constituents in the plasma and the tissue homogenates were respectively drawn and their pharmacokinetic parameters were respectively calculated. […] It should be noted that the pharmacokinetic parameters of a GQD constituent was calculated based on its average concentration in six mice at each time point. The results were expressed as mean ± SD.

[3] = Pharmacokinetics of GQD constituents in the portal vein of mice after oral GQD; conditions: both, Kunming, mouse; for AUC(0-t): read-out: AUC0–24 h
Method: as §1, §2

[4] = Pharmacokinetics/tissue distribution of GQD constituents in the livers of mice after oral GQD
Method: as §3

[5] = systemic circulation plasma, po, […], systemic circulation plasma, mice, oral GQD […], read-out: T1/2 (converted)
[6] = systemic circulation plasma, po, […], systemic circulation plasma, mice, oral GQD […], read-out: Tmax
[7] = systemic circulation plasma, mice, oral GQD 6.1 g/kg
[8] = mouse, colon (homogenate), po, […], colon, mice, oral GQD extract […], read-out: T1/2 (converted)
[9] = mouse, colon (homogenate), colon, mice, oral GQD extract 6.1 g/kg
[10] = mouse, colon (homogenate), colon, mice, oral GQD extract 6.1 g/kg, read-out: Tmax
[11] = colon, mice, oral GQD extract […]
[12] = portal vein plasma, po, […], portal vein plasma, mice, oral GQD extract […], read-out: Tmax
[13] = portal vein plasma, mice, oral GQD extract 6.1 g/kg
[14] = portal vein plasma, mice, oral GQD extract 6.1 g/kg, read-out: T1/2 (converted)
[15] = both, Kunming, mouse, liver (homogenate), po, […], liver, mice, oral GQD extract […], read-out: T1/2 (converted)
[16] = both, Kunming, mouse, liver (homogenate), liver, mice, oral GQD extract 6.1 g/kg
[17] = both, Kunming, mouse, liver (homogenate), liver, mice, oral GQD extract 6.1 g/kg, read-out: Tmax
[18] = liver, mice, oral GQD extract […]
[19] = both, Kunming, mouse, in vivo, po, […]
[20] = both, Kunming, mouse, in vivo, po, […], T1/2
[21] = in vivo, systemic circulation plasma, mice, oral GQD 6.1 g/kg
[22] = mouse, in vivo, colon, mice, oral GQD extract 6.1 g/kg
[23] = in vivo, portal vein plasma, mice, oral GQD extract 6.1 g/kg
[24] = both, Kunming, mouse, in vivo, liver, mice, oral GQD extract 6.1 g/kg

Structure (SMILES): O=c1cc(-c2ccccc2)oc2cc(O)c(O)c(O)c12 [Baicalein, baicalein]
half-life [1, 5]: 6.3 h | Tmax [1, 6]: 4 h | Cmax [1, 7]: 26.7 ng/mL | MRT [1, 7]: 6.8 h | AUC(0-t) [1, 7]: 229 ng·h/mL | half-life [2, 8]: 2 to 3 h | Cmax [2, 9]: 1920 ng/g | MRT [2, 9]: 5.8 h | Tmax [2, 10]: 4 h | T1/2 [2, 11]: 2.6 h | Tmax [3, 12]: 2 h | Cmax [3, 13]: 381 ng/mL | MRT [3, 13]: 3.8 h | AUC(0-t) [3, 13]: 1760 ng·h/mL | half-life [3, 14]: 1.3 h | half-life [4, 15]: 2 to 3 h | Cmax [4, 16]: 9020 ng/g | MRT [4, 16]: 4.3 h | Tmax [4, 17]: 4 h | T1/2 [4, 18]: 2.3 h

Structure (SMILES): O=C(O)[C@H]1O[C@@H](Oc2cc3oc(-c4ccccc4)cc(=O)c3c(O)c2O)[C@H](O)[C@@H](O)[C@@H]1O [Baicalin, baicalin]
half-life [1, 5]: 3.1 h | Tmax [1, 6]: 4 h | Cmax [1, 7]: 1450 ng/mL | MRT [1, 7]: 5.1 h | AUC(0-t) [1, 7]: 8670 ng·h/mL | half-life [2, 8]: 15 to 19 h | Cmax [2, 9]: 3460 ng/g | MRT [2, 9]: 9.9 h | Tmax [2, 10]: 1 h | T1/2 [2, 11]: 18.6# h | Tmax [3, 12]: 4 h | Cmax [3, 13]: 8150 ng/mL | MRT [3, 13]: 4.5 h | AUC(0-t) [3, 13]: 46300 ng·h/mL | half-life [3, 14]: 2 h | half-life [4, 15]: 1 to 2 h | Cmax [4, 16]: 5710 ng/g | MRT [4, 16]: 3.7 h | Tmax [4, 17]: 2 h | T1/2 [4, 18]: 1.7 h

half-life [2, 8]: 14.3 h | Cmax [2, 9]: 293 ng/g | MRT [2, 9]: 10.1 h | Tmax [2, 10]: 4 h | Tmax [3, 12]: 0.25 h | Cmax [3, 13]: 10.3 ng/mL | MRT [3, 13]: 4.4 h | AUC(0-t) [3, 13]: 67 ng·h/mL | half-life [3, 14]: 5.1 h | half-life [4, 15]: 15 to 19 h | Cmax [4, 16]: 186 ng/g | MRT [4, 16]: 11 h | Tmax [4, 17]: 4 h | T1/2 [4, 18]: 18.2# h
Structure (SMILES): COc1ccc2cc3[n+](cc2c1O)CCc1cc2c(cc1-3)OCO2 [Berberrubine, berberrubine]

half-life ([1]; in vivo, po, […], T1/2): 10.8 h | Tmax ([1]; in vivo, po, […], Tmax): 0.25 h | Tmax ([2]; mouse, in vivo, po, […]): 4 h | half-life ([2]; mouse, in vivo, po, […], T1/2): 4.3 h | half-life ([3]; in vivo, po, […]): 4.7 h | Tmax ([3]; in vivo, po, […], Tmax): 4 h | Kp ([4]; both sexes, Kunming, mouse, in vivo, po, AUC0–24 h liv/AUC0–24 h por): 10.5 | Tmax [4, 19]: 2 h | half-life [4, 20]: 3.7 h
Structure (SMILES): c1c2c(cc3c1OCO3)-c1cc3ccc4c(c3c[n+]1CC2)OCO4 [Coptisine, coptisine]

Structure (SMILES): O=c1c(-c2ccc(O)cc2)coc2cc(O)ccc12 [Daidzein, daidzein]
half-life ([1]; in vivo, po, […], T1/2): 1.5 h | Tmax ([1]; in vivo, po, […], Tmax): 0.25 to 0.5 h | Tmax ([2]; mouse, in vivo, po, […]): 1 h | half-life ([3]; in vivo, po, […]): 2.6 h | Tmax ([3]; in vivo, po, […], Tmax): 0.25 to 0.5 h | T1/2 [4, 19]: 3.6 h | Tmax [4, 19]: 0.25 h | half-life [4, 20]: 3 to 4 h

Structure (SMILES): O=c1c(-c2ccc(O)cc2)coc2cc(O[C@@H]3O[C@H](CO)[C@@H](O)[C@H](O)[C@H]3O)ccc12 [Daidzin, daidzin]
Cmax [1, 21]: 49 ng/mL | MRT [1, 21]: 1.8 h | AUC(0-t) [1, 21]: 85.7 ng·h/mL | half-life ([1]; in vivo, systemic circulation plasma, mice, oral GQD 6.1 g/kg, read-out: T1/2 (converted)): 1.8 h | Tmax ([1]; in vivo, systemic circulation plasma, mice, oral GQD 6.1 g/kg, read-out: Tmax): 0.25 h | Cmax [2, 22]: 114 ng/g | MRT [2, 22]: 9.9 h | half-life ([2]; mouse, in vivo, colon, mice, oral GQD extract 6.1 g/kg, read-out: T1/2 (converted)): 11 h | Tmax ([2]; mouse, in vivo, colon, mice, oral GQD extract 6.1 g/kg, read-out: Tmax): 1 h | Cmax [3, 23]: 76.9 ng/mL | MRT [3, 23]: 2 h | AUC(0-t) [3, 23]: 151 ng·h/mL | half-life ([3]; in vivo, portal vein plasma, mice, oral GQD extract 6.1 g/kg, read-out: T1/2 (converted)): 1.8 h | Tmax ([3]; in vivo, portal vein plasma, mice, oral GQD extract 6.1 g/kg, read-out: Tmax): 0.25 h | Cmax [4, 24]: 54.1 ng/g | MRT [4, 24]: 3.6 h | half-life ([4]; both, Kunming, mouse, in vivo, liver, mice, oral GQD extract 6.1 g/kg, read-out: T1/2 (converted)): 3.4 h | Tmax ([4]; both, Kunming, mouse, in vivo, liver, mice, oral GQD extract 6.1 g/kg, read-out: Tmax): 0.5 h

T1/2 ([2]; mouse, in vivo, po, […]): 2.4 h | T1/2 ([4]; mouse, in vivo, po, […]): 11.1 h
Structure (SMILES): COc1ccc2cc3[n+](cc2c1OC)CCc1cc(O)c(O)cc1-3 [Demethyleneberberine, demethyleneberberine]
